The values that follow come from patent US10532054B2, “Compounds for the prevention and treatment of cardiovascular diseases” (Resverlogix Corp., priority 2007, dated 2020).

One series concerns ApoA-I mRNA. The series can be described thus: Quantification of ApoA-I mRNA in HepG2 cells. The class given is cell-based. On the set-up: key: Active: An active compound is one that causes a >15% increase in ApoA-I mRNA at a concentration less than or equal to 100 uM. The note with it: concentration less than or equal to 100 uM. The method, then:
In this example, ApoA-I mRNA in tissue culture cells was quantitated to measure the transcriptional up-regulation of ApoA-I when treated with a compound of the invention.
HepG2 cells (˜2×10^5 per well) were placed in a 24-well plate in ˜400 μL MEM, supplemented with 0.5% (v/v) FBS, 24 h before addition of the compound of interest. At time of harvesting, the spent media was removed from the HepG2 cells and immediately placed on ice (for immediate use) or at −80° C. (for future use) in ApoA-I and albumin ELISAs. The cells remaining in the plate wells were rinsed in 200 μL PBS. PBS was carefully removed to avoid removing any loosely attached cells.
Once the PBS was removed, 85 μL cell lysis solution was added the cells in each well and incubated for 5-10 min at room temperature, to allow for complete cell lysis and detachment. mRNA was then prepared using the “mRNA Catcher PLUS plate” from Invitrogen, according to the protocol supplied. […]
The eluted mRNA isolated was then used in a one-step real-time […] reaction, using components of the Ultra Sense Kit together with Applied Biosystems primer-probe mixes. Real-time PCR data was analyzed, using the Ct values, to determine the fold induction of each unknown sample, relative to the control (that is, relative to the control for each independent DMSO concentration). […]

The conditions of series [1]: subjects with low HDL-C; cited from earlier work.
The conditions of series [2]: following oral administration; cited from earlier work.

Take “4-(1-Oxo-1,2-dihydroisoquinolin-3)phenyl 2-amino-5-guanidinopentanoate trihydrochloride [Example 4]”: the “Effect on ApoA-I mRNA levels” value in the series with ApoA-I mRNA is “Active”.
As to `Cc1cc(-c2nc3cc(Cl)cc(Cl)c3c(=O)[nH]2)cc(C)c1OCCO` [Example 80, 5,7-dichloro-2-(4-(2-hydroxyethoxy)-3,5-dimethylphenyl)quinazolin-4(3H)-one], the melting point (usually the temperature of the solid-liquid transition) lay within 260.8 to 262.6 °C.
`COc1cc2nc(-c3cc(C)c(O)c(C)c3)[nH]c(=O)c2c(OC)c1CN1CCOCC1` [Example 81, 2-(4-hydroxy-3,5-dimethylphenyl)-5,7-dimethoxy-6-(morpholinomethyl)quinazolin-4(3H)-one]: the melting point was in the range of 237 to 239.1 °C.
The same measure, in the same setting: in the case of `COc1cc(OC)c2c(=O)[nH]c(-c3ccc(OCC(=O)O)c(OC)c3)nc2c1` [Example 103, 2-(4-(5,7-dimethoxy-4-oxo-3,4-dihydroquinazolin-2-yl)2-methoxyphenoxy)acetic acid] it was 275 to 277 °C; in that of `COc1cc(O)c2c(=O)[nH]c(-c3cc(C)c(O)c(C)c3)nc2c1` [Example 104, 5-hydroxy-2-(4-hydroxy-3,5-dimethylphenyl)-7-methoxyquinazolin-4(3H)-one], 291.3 to 293 °C.
With `Cc1ccc(C)c(OCCCC(C)(C)C(=O)O)c1` [gemfibrozil], in series [1], the “increase in the HDL-C level” value was 6% and the “reduction of the CHD risk” value is 22%.
On to `O=c1c(O)c(-c2ccc(O)c(O)c2)oc2cc(O)cc(O)c12` [quercetin], for which the intestinal absorption entry in series [2] was “less than 1%”.
